Data as given in patent US6630431B2, “Nail polish lacquer remover” (Board of Trustees of Michigan State University, priority 2001, dated 2003).

Key:
[1] = animals; cited from earlier work
Vapor pressure = assay type: physicochemical; settings: @ 20° C.
Method: The vapor pressure of ethyl lactate is 1.6 mmHg @ 20° C. and for diethyl succinate is 0.2 mmHg @ 20° C. These are very favorable for a nail polish removing lacquer.

Row | SMILES | LD50 data [1] | vapor pressure (Vapor pressure) [mmHg]
1 | CCOC(=O)CCC(=O)OCC [diethyl succinate] | very large doses are required to produce toxic results | 0.2
2 | CCOC(=O)C(C)O (stereo not shown) [ethyl lactate] | very large doses are required to produce toxic results | 1.6
